Reference: patent publication US20180009797A1, “AZA-ARYL 1H-PYRAZOL-1-YL BENZENE SULFONAMIDES” (ChemoCentryx, Inc., priority 2016, published 2018)
pIC50: −log10 of the molar value.

target: T1, CCR(9) (Homo sapiens, UniProt P51686); assay: calcium mobilization assay (FLIPR, MOLT-4 cells, hTECK); format: cell-based; conditions: read-out: CCR(9) Ca^2+
T1 construct: CCR(9)-expressing cells such as T cell line MOLT-4 cells; host or cells: MOLT-4 T cell line
T1 sequence (P51686 1-369): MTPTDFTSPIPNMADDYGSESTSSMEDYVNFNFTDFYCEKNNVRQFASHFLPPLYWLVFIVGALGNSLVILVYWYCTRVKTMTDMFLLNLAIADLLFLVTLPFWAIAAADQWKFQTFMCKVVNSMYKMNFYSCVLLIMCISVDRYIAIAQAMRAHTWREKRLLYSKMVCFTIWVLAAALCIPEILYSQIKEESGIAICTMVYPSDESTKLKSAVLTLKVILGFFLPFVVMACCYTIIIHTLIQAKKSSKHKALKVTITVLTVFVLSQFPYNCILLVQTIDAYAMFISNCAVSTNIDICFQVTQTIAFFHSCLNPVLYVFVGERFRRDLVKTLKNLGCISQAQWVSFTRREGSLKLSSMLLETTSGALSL
Method: In calcium signaling assays used to determine the ability of a compound to interfere with binding between a chemokine receptor and a known chemokine ligand, chemokine receptor-expressing cells (CCR(9)-expressing cells such as T cell line MOLT-4 cells) are first incubated with a compound of interest, such as a potential chemokine antagonist, at increasing concentrations. The cell number can be from 10^5 to 5×10^6 cells per well in a 96-well microtiter plate. The concentration of the compound being tested may range from 0 to 100 μM. After a period of incubation (which can range from 5 to 60 minutes), the treated cells are placed in a Fluorometric Imaging Plate Reader (FLIPR®) (available from Molecular Devices Corp., Sunnyvale, Calif.) according to the manufacturer's instruction. The FLIPR® system is well known to those skilled in the art as a standard method of performing assays. The cells are then stimulated with an appropriate amount of the chemokine ligand (TECK for CCR(9)) at 5-100 nM final concentration, and the signal of intracellular calcium increase (also called calcium flux) is recorded. The efficacy of a compound as an inhibitor of binding between the chemokine and the ligand can be calculated as an IC50 (the concentration needed to cause 50% inhibition in signaling) or IC90 (at 90% inhibition).
MOLT-4 cells were obtained from the American Type Culture Collection (Manassas, Va.) and cultured in RPMI tissue culture medium supplemented with 10% fetal calf serum (FCS) in a humidified 5% CO2 incubator at 37° C. Recombinant human chemokine proteins TECK was obtained from R&D Systems (Minneapolis, Minn.). ChemoTX® chemotaxis microchambers were purchased from Neuro Probe (Gaithersburg, Md.). CyQUANT® cell proliferation kits were purchased from Molecular Probes (Eugene, Oreg.). Calcium indicator dye Fluo-4 AM was purchased from Molecular Devices (Mountain View, Calif.).
A cytoplasmic calcium mobilization assay was used to determine the efficacy of potential receptor antagonists at blocking the signals mediated through chemokine receptors, such as CCR(9). This assay was routinely performed using the Fluorescent Imaging Plate Reader (FLIPR, Molecular Devices). MOLT-4 cells were labeled with the fluorescent-indicator dye Fluo-4 (Molecular Devices) according to the manufacturer's directions. After labeling, the cells were collected by centrifugation (400×g for 5 min at room temperature) and resuspended in HBSS to a cell density of 2.5×10^6 cells/mL. Test compounds were prepared in 100% DMSO at 100× the final concentration; generally, a range of concentrations of each compound were tested, with final concentrations from 0.1 nM to 10,000 nM. Labeled cells (300 μL) were mixed with compound or an equal volume of DMSO (3 μL) in a 96-well plate; after thorough mixing, 50 μL of this cell/compound mixture was added to each of four wells of a 384-well FLIPR plate. The chemokine agonist (i.e., hTECK), prepared in HBSS at a 5× concentration of the previously determined EC^50 concentration, was added to each well and resulting changes in the fluorescent intensity, indicative of chemokine receptor-mediated signaling, were recorded on the FLIPR.

Compared with `CC(C)(C)c1ccc(S(=O)(=O)Nc2cc(C(F)(F)F)nn2-c2cccc3cccnc23)cc1`, `CC(C)(C)c1ccc(S(=O)(=O)Nc2cc(C(C)(F)F)nn2-c2cccc3ncccc23)cc1` is higher in pIC50: under 6.00 for the first, over 7.00 for the second.

`CC(C)(C)c1ccc(S(=O)(=O)Nc2cc(C(F)(F)F)nn2-c2ncnc3ccccc23)cc1` and `Cc1cc(NS(=O)(=O)c2ccc(C(C)(C)C)cc2)n(-c2ncnc3ccccc23)n1` cannot be ordered by pIC50: over 7.00 for the first, over 7.00 for the second.

`Cc1cc(NS(=O)(=O)c2ccc3c(c2)CCC3(C)C)n(-c2cccc3ncccc23)n1` and `Cc1cc(NS(=O)(=O)c2ccc3c(c2)CCC(C)(C)O3)n(-c2cccc3ncccc23)n1` cannot be ordered by pIC50: over 7.00 for the first, over 7.00 for the second.

Compared with `Cc1cc(NS(=O)(=O)c2ccc3c(c2)CC(C)(C)O3)n(-c2cccc3ncccc23)n1`, `COc1ccc(S(=O)(=O)Nc2cc(C)nn2-c2cccc3ncccc23)cc1` is lower in pIC50: over 7.00 for the first, 6.00 to 7.00 for the second. The first is the more potent here.

`CCOc1ccc(S(=O)(=O)Nc2cc(C)nn2-c2cccc3ncccc23)cc1` and `CCc1ccc(S(=O)(=O)Nc2cc(C)nn2-c2cccc3ncccc23)cc1` cannot be ordered by pIC50: over 7.00 for the first, over 7.00 for the second.

First: Cc1cc(NS(=O)(=O)c2ccc(C(C)(C)C)cc2)n(-c2cccc3[nH]c(=O)ccc23)n1
Second: Cc1cnc2cccc(-n3nc(C)cc3NS(=O)(=O)c3ccc(C(C)(C)C)cc3)c2c1
The pIC50 of the first is higher: over 7.00 for the first, 6.00 to 7.00 for the second.

`Cc1cc(NS(=O)(=O)c2ccc(C3(C#N)CC3)cc2)n(-c2cccc3ncccc23)n1` and `Cc1cc(NS(=O)(=O)c2ccc(C(C)(C)O)cc2)n(-c2cccc3ncccc23)n1` cannot be ordered by pIC50: over 7.00 for the first, over 7.00 for the second.

`Cc1cc(NS(=O)(=O)c2ccc(C(C)(C)C)cc2)n(-c2ccc(N(C)C)c3ccccc23)n1` and `Cc1cc(NS(=O)(=O)c2ccc(C(C)(C)C)cc2)n(-c2ncc(C)c3ccccc23)n1` cannot be ordered by pIC50: over 7.00 for the first, over 7.00 for the second.

`Cc1cc(NS(=O)(=O)c2ccc(C(C)(C)C)cc2)n(-c2c(C)ccc3ncccc23)n1` and `COc1ccc2ncccc2c1-n1nc(C)cc1NS(=O)(=O)c1ccc(C(C)(C)C)cc1` cannot be ordered by pIC50: over 7.00 for the first, over 7.00 for the second.

First: CC(C)c1cc(NS(=O)(=O)c2ccc(C(C)(C)C)cc2)n(-c2cccc3ncccc23)n1
Second: CC(C)(C)c1ccc(S(=O)(=O)Nc2cc(CO)nn2-c2cccc3ncccc23)cc1
The pIC50 of the first is lower: 6.00 to 7.00 for the first, over 7.00 for the second. The second is the more potent here.

`Cc1cc(NS(=O)(=O)c2ccc(OC(C)(C)C)cc2)n(-c2cccc3ncccc23)n1` and `CC(C)(C)c1ccc(S(=O)(=O)Nc2cc(C(N)=O)nn2-c2cccc3ncccc23)cc1` fall in the same range of pIC50: 6.00 to 7.00 for the first, 6.00 to 7.00 for the second.

`Cc1cc(NS(=O)(=O)c2ccc(N3CCOCC3)cc2)n(-c2cccc3ncccc23)n1` and `Cc1cc(NS(=O)(=O)c2ccc(N3CCOCC3)c(F)c2)n(-c2cccc3ncccc23)n1` cannot be ordered by pIC50: over 7.00 for the first, over 7.00 for the second.

Compared with `Cc1cc(NS(=O)(=O)c2ccc(C(C)(C)C)cc2)n(-c2cccc3cnncc23)n1`, `Cc1cc(NS(=O)(=O)c2ccc(C(C)(C)C)cc2)n(-c2cccc3nccc(C)c23)n1` is higher in pIC50: under 6.00 for the first, over 7.00 for the second. The second is the more potent here.

`CC(C)(C)c1ccc(S(=O)(=O)Nc2c3c(nn2-c2cccc4cnccc24)CCC3)cc1` and `Cc1cc(NS(=O)(=O)c2ccc(C(C)(C)C)cc2)n(Cc2cccc3cnccc23)n1` cannot be ordered by pIC50: over 7.00 for the first, over 7.00 for the second.

`CC(C)(C)c1ccc(S(=O)(=O)Nc2cc(C3CC3)nn2-c2cccc3ncccc23)cc1` and `CC(C)(C)c1ccc(S(=O)(=O)Nc2cc(CC#N)nn2-c2cccc3ncccc23)cc1` cannot be ordered by pIC50: over 7.00 for the first, over 7.00 for the second.

First: Cc1cc(NS(=O)(=O)c2ccc(C(C)(C)C)cc2C)n(-c2cccc3ncccc23)n1
Second: COc1cc(C(C)(C)C)ccc1S(=O)(=O)Nc1cc(C)nn1-c1cccc2ncccc12
The pIC50 of the first is lower: 6.00 to 7.00 for the first, over 7.00 for the second.

First: Cc1cc(NS(=O)(=O)c2ccc(C(C)(C)C)cc2)n(-c2ccc3ccccc3n2)n1
Second: Cc1cc(NS(=O)(=O)c2ccc(C(C)(C)C)cc2)n(-c2cc3ccccc3cn2)n1
The pIC50 of the first is lower: 6.00 to 7.00 for the first, over 7.00 for the second.

`Cc1cc(NS(=O)(=O)c2ccc(C(C)(C)C)cc2)n(-c2ccc(Cl)c3nccc(C)c23)n1` and `Cc1cnc2c(Cl)ccc(-n3nc(C)cc3NS(=O)(=O)c3ccc(C(C)(C)C)cc3)c2c1` cannot be ordered by pIC50: over 7.00 for the first, over 7.00 for the second.

`Cc1cc(NS(=O)(=O)c2ccc(C(C)(C)C)cc2)n(-c2ccc3ncccc3c2)n1` and `Cc1cc(NS(=O)(=O)c2ccc(C(C)(C)C)cc2)n(-c2ccc3ccccc3c2)n1` cannot be ordered by pIC50: over 7.00 for the first, over 7.00 for the second.

`Cc1cc(NS(=O)(=O)c2ccc(C(C)(C)C)cc2)n(-c2ccnc3ccc(F)cc23)n1` and `Cc1nn(-c2cccc3ncccc23)c(NS(=O)(=O)c2ccc(C(C)(C)C)cc2)c1F` cannot be ordered by pIC50: over 7.00 for the first, over 7.00 for the second.

First: Cc1cc(NS(=O)(=O)c2ccc(C(C)(C)C)cc2)n(Cc2cccc3ncccc23)n1
Second: CC(C)c1ccc(S(=O)(=O)Nc2cc(C(C)(F)F)nn2-c2cccc3ncccc23)cc1
The pIC50 of the first is lower: 6.00 to 7.00 for the first, over 7.00 for the second. The second is the more potent here.

`CC(C)Oc1ccc(S(=O)(=O)Nc2cc(C(C)(F)F)nn2-c2cccc3ncccc23)cc1` showed a pIC50 of over 7.00.
